Assay results as given in ChEMBL document CHEMBL5532655, “Discovery of (R)-4-(8-methoxy-2-methyl-1-(1-phenylethy)-1H-imidazo[4,5-c]quinnolin-7-yl)-3,5-dimethylisoxazole as a potent and selective BET inhibitor for treatment of acute myeloid leukemia (AML) guided by FEP calculation” (Eur J Med Chem, 2024).

How the values were obtained:
Homo sapiens [1] = species on record: Homo sapiens; assay: Binding affinity to PHIP2 (unknown origin) using biotinylated histone peptide H4 as substrate at 1 uM incubated for 2 hrs by AlphaScreen assay relative to control
[2] = molecular target: T1, Bromodomain-containing protein 9 (Homo sapiens) (UniProt Q9H8M2); assay: Binding affinity to BRD9 (unknown origin) using biotinylated histone peptide H4 as substrate at 1 uM incubated for 2 hrs by AlphaScreen assay relative to control
T1 sequence (whole entry): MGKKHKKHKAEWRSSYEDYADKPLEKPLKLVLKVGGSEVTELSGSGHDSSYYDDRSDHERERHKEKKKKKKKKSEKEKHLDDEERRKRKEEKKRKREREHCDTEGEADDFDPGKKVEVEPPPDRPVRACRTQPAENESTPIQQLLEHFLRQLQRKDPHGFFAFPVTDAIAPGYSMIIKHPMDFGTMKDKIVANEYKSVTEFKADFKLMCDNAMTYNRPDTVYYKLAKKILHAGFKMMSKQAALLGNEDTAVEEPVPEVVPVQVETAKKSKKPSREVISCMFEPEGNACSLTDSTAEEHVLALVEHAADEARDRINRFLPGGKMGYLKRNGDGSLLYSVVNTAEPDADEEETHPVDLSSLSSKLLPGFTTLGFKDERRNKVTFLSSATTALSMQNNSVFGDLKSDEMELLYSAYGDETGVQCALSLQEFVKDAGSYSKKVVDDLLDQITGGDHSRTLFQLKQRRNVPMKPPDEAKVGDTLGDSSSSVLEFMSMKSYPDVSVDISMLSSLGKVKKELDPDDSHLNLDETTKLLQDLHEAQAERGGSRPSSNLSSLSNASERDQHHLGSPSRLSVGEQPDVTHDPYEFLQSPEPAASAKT

[3] = molecular target: Bromodomain adjacent to zinc finger domain protein 2B (Homo sapiens) (UniProt Q9UIF8); assay: Binding affinity to BAZ2B (unknown origin) using biotinylated histone peptide H4 as substrate at 1 uM incubated for 2 hrs by AlphaScreen assay relative to control
[4] = molecular target: CREB-binding protein (Homo sapiens) (UniProt Q92793); conditions: time 30.0 min
[5] = molecular target: Chromatin remodeling regulator CECR2 (Homo sapiens) (UniProt Q9BXF3); conditions: time 30.0 min
[6] = molecular target: Histone acetyltransferase KAT2A (Homo sapiens) (UniProt Q92830); conditions: time 30.0 min
Peregrin (Homo sapiens) = molecular target: T2, Peregrin (Homo sapiens) (UniProt P55201); conditions: time 30.0 min
T2 sequence (whole entry): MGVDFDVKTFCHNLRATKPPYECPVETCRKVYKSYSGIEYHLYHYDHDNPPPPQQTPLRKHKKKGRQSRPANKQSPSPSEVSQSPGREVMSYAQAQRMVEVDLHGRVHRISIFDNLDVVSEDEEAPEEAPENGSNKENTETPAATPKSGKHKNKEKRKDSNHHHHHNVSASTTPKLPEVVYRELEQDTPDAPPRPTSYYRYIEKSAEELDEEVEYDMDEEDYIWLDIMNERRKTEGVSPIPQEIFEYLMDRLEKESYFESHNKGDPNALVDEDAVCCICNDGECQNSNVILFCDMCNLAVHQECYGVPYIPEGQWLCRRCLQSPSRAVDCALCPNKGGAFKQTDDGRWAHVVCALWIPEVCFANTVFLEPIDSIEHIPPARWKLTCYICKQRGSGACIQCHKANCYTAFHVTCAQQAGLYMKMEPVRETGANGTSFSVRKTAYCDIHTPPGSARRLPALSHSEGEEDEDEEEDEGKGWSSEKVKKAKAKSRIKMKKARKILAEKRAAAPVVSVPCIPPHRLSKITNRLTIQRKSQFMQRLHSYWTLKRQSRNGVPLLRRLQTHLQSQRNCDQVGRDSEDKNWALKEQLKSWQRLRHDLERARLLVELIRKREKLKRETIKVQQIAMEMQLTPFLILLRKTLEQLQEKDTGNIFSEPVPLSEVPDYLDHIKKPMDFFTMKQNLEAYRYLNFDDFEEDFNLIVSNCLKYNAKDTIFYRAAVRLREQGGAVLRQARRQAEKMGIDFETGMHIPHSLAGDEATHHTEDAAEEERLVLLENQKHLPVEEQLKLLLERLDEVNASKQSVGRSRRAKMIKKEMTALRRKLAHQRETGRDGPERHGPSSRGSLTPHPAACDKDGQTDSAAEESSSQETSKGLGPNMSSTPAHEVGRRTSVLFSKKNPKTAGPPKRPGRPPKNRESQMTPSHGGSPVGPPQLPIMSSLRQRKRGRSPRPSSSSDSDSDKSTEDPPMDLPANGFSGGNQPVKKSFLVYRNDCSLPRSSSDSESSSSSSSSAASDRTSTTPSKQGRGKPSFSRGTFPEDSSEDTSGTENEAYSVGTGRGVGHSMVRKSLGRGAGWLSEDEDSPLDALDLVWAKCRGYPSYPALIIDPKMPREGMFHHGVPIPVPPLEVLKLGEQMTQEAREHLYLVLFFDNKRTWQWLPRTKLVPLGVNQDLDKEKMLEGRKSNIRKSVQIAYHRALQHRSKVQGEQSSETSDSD

[7] = molecular target: Bromodomain adjacent to zinc finger domain protein 2B (Homo sapiens) (UniProt Q9UIF8); conditions: time 30.0 min
[8] = molecular target: Transcription initiation factor TFIID subunit 1 (Homo sapiens) (UniProt P21675); conditions: time 30.0 min
Homo sapiens [9] = species on record: Homo sapiens; conditions: time 30.0 min
[10] = molecular target: SWI/SNF-related matrix-associated actin-dependent regulator of chromatin subfamily A member 4 (Homo sapiens) (UniProt P51532); conditions: time 30.0 min

Bromodomain adjacent to zinc finger domain protein 2B (Homo sapiens), sequence (Q9UIF8 whole entry, the tested form may be a part): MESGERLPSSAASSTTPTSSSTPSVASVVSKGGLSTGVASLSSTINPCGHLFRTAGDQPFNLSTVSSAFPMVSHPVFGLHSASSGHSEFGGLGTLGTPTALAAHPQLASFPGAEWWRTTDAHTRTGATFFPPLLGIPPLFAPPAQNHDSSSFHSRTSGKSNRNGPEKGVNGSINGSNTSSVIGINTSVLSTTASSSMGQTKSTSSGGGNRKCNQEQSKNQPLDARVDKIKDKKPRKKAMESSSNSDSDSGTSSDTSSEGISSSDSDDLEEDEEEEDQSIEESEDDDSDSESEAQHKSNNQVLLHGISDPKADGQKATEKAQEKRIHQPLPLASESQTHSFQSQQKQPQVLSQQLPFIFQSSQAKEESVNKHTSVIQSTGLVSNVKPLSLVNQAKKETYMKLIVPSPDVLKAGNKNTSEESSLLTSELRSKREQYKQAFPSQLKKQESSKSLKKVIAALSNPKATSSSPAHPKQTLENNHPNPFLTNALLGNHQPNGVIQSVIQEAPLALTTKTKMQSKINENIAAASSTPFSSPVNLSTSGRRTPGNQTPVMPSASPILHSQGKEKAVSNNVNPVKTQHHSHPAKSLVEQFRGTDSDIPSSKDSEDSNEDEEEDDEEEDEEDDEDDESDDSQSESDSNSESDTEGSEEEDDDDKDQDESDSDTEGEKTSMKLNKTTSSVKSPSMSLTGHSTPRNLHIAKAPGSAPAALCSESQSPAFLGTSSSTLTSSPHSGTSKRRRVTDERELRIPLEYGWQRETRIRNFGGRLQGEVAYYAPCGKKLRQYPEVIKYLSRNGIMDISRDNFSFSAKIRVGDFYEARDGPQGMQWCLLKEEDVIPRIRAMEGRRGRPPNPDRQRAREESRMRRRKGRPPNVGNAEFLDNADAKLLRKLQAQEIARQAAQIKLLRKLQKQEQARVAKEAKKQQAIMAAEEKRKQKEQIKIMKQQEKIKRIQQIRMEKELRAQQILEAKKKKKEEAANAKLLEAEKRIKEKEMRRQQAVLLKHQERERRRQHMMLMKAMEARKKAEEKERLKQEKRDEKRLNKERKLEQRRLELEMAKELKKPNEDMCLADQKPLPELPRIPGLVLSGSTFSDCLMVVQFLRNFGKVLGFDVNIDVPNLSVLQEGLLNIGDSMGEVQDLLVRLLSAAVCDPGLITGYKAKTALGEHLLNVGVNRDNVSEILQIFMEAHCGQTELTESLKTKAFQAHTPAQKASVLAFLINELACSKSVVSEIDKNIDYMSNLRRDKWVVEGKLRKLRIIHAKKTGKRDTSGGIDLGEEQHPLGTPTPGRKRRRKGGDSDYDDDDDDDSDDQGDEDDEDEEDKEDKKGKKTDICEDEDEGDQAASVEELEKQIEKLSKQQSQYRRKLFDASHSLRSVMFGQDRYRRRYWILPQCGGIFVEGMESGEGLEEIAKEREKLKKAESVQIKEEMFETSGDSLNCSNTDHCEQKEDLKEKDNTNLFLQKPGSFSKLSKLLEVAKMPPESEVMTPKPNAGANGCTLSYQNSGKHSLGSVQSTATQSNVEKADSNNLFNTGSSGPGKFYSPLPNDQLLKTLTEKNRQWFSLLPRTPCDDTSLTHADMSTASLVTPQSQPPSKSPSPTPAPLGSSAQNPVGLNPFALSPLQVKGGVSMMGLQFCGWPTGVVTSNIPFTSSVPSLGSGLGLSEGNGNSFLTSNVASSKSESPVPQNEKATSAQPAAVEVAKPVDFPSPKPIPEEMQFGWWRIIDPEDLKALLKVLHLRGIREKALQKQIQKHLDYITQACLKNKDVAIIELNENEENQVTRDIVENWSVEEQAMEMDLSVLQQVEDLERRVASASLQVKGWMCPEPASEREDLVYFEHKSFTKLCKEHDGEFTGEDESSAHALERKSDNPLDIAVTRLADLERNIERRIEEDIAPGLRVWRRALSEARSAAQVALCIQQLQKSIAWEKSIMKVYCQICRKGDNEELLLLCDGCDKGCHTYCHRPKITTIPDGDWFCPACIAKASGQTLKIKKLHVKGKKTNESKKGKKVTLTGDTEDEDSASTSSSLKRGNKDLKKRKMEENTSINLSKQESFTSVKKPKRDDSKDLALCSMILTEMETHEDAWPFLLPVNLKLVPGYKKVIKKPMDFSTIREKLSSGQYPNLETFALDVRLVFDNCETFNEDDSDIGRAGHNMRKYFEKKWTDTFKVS
Histone acetyltransferase KAT2A (Homo sapiens), sequence (Q92830 2-837 limits assumed): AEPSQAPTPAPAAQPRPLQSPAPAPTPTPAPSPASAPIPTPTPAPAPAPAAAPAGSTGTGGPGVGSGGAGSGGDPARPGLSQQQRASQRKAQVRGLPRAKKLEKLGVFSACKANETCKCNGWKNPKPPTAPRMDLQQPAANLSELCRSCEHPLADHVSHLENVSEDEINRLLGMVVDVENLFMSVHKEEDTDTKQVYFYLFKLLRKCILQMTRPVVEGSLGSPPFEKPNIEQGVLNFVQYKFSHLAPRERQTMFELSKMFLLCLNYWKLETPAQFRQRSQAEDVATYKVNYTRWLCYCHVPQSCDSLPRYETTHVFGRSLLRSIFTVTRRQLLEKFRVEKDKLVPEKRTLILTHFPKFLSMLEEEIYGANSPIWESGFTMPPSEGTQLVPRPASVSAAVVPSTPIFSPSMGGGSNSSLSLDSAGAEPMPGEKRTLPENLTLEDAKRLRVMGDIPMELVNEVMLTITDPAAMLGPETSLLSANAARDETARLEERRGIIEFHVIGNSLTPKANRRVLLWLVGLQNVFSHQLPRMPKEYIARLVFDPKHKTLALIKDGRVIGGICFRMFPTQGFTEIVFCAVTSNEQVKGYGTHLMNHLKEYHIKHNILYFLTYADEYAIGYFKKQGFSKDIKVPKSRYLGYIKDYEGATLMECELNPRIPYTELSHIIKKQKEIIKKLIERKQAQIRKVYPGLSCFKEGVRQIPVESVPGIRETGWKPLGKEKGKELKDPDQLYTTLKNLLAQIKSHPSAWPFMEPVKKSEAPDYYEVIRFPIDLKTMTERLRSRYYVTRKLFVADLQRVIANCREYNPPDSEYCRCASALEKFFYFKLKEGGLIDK
Chromatin remodeling regulator CECR2 (Homo sapiens), sequence (Q9BXF3 whole entry, looked up): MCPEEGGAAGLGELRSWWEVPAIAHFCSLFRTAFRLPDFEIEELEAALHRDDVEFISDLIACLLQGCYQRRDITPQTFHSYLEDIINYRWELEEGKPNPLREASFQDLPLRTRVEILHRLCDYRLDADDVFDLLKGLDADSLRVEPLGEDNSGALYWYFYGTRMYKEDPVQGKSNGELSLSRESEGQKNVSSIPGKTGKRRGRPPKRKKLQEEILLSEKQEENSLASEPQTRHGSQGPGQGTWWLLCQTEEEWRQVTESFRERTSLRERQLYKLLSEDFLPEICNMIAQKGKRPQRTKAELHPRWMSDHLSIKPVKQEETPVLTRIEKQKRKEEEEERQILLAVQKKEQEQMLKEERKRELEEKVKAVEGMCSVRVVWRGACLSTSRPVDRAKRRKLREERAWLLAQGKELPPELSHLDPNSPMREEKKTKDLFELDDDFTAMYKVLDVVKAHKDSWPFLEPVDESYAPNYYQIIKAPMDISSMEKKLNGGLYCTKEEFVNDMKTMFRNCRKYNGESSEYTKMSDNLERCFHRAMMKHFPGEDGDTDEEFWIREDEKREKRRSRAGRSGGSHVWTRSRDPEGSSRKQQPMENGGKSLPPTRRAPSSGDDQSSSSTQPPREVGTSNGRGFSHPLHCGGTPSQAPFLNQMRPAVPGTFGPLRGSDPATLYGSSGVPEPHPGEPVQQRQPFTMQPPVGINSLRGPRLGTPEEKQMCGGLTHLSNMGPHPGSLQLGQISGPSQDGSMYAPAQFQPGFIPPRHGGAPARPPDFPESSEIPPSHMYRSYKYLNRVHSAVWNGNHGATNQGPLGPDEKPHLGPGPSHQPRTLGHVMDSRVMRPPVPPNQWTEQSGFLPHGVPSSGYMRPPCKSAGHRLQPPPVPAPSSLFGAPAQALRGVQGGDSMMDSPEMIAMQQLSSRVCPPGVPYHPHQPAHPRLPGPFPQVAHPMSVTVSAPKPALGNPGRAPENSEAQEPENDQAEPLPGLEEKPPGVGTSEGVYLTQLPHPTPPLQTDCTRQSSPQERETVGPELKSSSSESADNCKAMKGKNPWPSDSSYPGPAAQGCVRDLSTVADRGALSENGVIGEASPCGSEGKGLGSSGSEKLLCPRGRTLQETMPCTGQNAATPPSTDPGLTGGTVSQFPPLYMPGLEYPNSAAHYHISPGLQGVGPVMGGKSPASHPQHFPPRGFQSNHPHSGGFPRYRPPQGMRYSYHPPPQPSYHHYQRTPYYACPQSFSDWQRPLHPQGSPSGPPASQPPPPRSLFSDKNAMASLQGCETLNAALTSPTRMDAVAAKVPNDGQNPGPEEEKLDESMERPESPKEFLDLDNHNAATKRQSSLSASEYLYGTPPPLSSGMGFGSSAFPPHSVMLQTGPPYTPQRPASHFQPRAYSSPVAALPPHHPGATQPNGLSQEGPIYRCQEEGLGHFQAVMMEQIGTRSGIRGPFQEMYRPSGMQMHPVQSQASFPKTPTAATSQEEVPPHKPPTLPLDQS

| Structure (SMILES) | Activity (Homo sapiens [1]) [%] | Activity [2] [%] | Activity [3] [%] | ΔTm [4] [°C] | ΔTm [5] [°C] | ΔTm [6] [°C] | ΔTm (Peregrin (Homo sapiens)) [°C] | ΔTm [7] [°C] | ΔTm [8] [°C] | ΔTm (Homo sapiens [9]) [°C] | ΔTm [10] [°C] |
| --- | --- | --- | --- | --- | --- | --- | --- | --- | --- | --- | --- |
| COc1cc2c(cc1-c1c(C)n[nH]c1C)ncc1nc(C)n([C@H](C)c3ccccc3)c12 | < 30 | < 30 | < 30 | 0 | 0 | 0 | 0 | 0 | 0 | 0 | 0 |
| COc1cc2c(cc1-c1c(C)noc1C)ncc1nc(C)n([C@H](C)c3ccccc3)c12 | < 30 | < 30 | < 30 | 5 | 0 | 0 | 0 | 0 | 0 | 0 | 0 |
